According to US11613552B2, “Pharmaceutical agents, compositions, and methods relating thereto” (Alltech, Inc., priority 2017, dated 2023):
One block for each molecule: values may come before it.

Assays:
HepG2 cells [1] = assay: Glucose production assay in HepG2 cells; format: cell-based, human
Protocol: (§1) Equal numbers of Human HepG2 or rat H4IIE cells (1-1.5×10^5 cells/well) were seeded on 96 well plates in 10% FBS-containing media for 24 hr. Cells were then washed twice with PBS, and treated with various concentrations of compounds, metformin or insulin in 100 μl of glucose production media (glucose-free, phenol red-free DMEM media supplemented with 20 mM sodium lactate, 2 mM sodium pyruvate and 5 mM HEPES) at 37° C. for 24 hr (H4IIE cells only) or 48 hr (HepG2 cell only). Cells were also incubated with 0.24% DMSO (the maximal volume of DMSO solvent used in the experiments).
(§2) After the above treatments, 50 μl of culture media were collected, and subjected to glucose analysis using Molecular Probes Amplex Red glucose assay kit (Cat #A22189) according to the manufacturer's protocol. Cell numbers or viability in the culture plate after the above compound treatments were determined using Promega's CellTiter96® AQueous One Solution Cell Proliferation Assay kits, according to the manufacturer's protocol and instructions. In brief, after removing 50 μl of culture media for glucose assay, cells were incubated with AQueous One solution (25 μl stock solution and 50 μl prewarmed PBS/per well) at 37° C. for 1 hour, and the absorbance of OD490 nm in each sample was determined by the Bio-Tek microplate reader. Cell viability in culture wells were determined by the subtraction of OD490 nm in cultured cells with the OD490 nm in plain culture media (without seeding of cells). Glucose production in the culture cells were obtained by normalizing the glucose concentration in culture media by cell viability in each well. At least 3 samples per each treatment were examined for the above analysis. Data are presented as Mean±SEM of those samples. Experiments were repeated at least twice.
(§3) The half maximal inhibitory concentration (IC50 values) of Compound #43 or metformin for the inhibition of glucose production were determined using the ED50 Plus v1.0 online software.

Lepr^db/db mice [2] = assay: Chronic treatment: fasting blood glucose and HbA1c in Lepr^db/db mice; format: in vivo, mouse; settings: for effect on HbA1c levels: 25 μg selenium/kg ip daily for 90 days from 41 days of age (FIG. 5)
Protocol: (§4) Male Lepr^db/db mice at 38 days of age were intraperitoneally (ip) injected daily with physiological saline ([…]) containing 0.2% DMSO, Compound #C, Compound #50, Compound #68, and/or Compound #43 (25 μg selenium or sulfur equivalents of each compound per kilogram body weight, diluted in sterile physiological saline) for periods ranging from 43-90 days. Body weights of the above treated mice were recorded daily using a balance and any visible abnormal animal gross morphology and walking behavior were monitored daily. After the treatments, animals were fasted overnight and then subjected to blood glucose or HbA1c assays, glucose tolerance tests or tissue collections.
(§5) For comparative studies of any potential anti-diabetic effects of Compounds #43, #69 and #70, male Lepr^db/db mice at 41 days of age were intraperitoneally (ip) injected daily with physiological saline ([…]) containing 0.2% DMSO, Compound #43, Compound #69, or Compound #70 (25 μg selenium of each compound per kilogram body weight, diluted in sterile physiological saline). After the treatments for 43 days, animals were fasted overnight and then subjected to blood glucose and glucose tolerance tests. After daily treatments of these compounds for 90 days, sera from these animals were collected and then subjected to blood HbA1c assays.
After treatment with physiological saline or compounds or after the injection of a bolus of glucose, a small drop of blood from each mouse was collected by snipping the mouse tail tip. Blood glucose levels were determined using a Glucometer with a maximum capability for glucose measurement of 600 mg/dL.
After saline or compound treatments, a small drop of blood from the mouse tail was collected in an EDTA-coated eppendorf tube (to prevent blood coagulation) (Fisher Scientific), and then subjected to a HbA1c assay using the Crystal Chem's or Kamiya's mouse glycated hemoglobin A1c ELISA kit, according to the manufacturer's protocol. Also after the final treatments, mouse serum was collected and subjected to HbA1c assay using the Kamiya Biomeidcal Company's mouse HbA1c kit, according to the manufacturer's protocol.

Lepr^db/db mice [3] = assay: Glucose tolerance test in Lepr^db/db mice; format: in vivo, mouse
Protocol: as §4, §5
Glucose tolerance tests were performed as described previously (Li et al, Int J Biol Sci 2008; 4:29-36). Briefly, overnight-fasted Lepr^db/db mice after saline or compound treatments were injected intraperitoneally with 2 grams/kg body weight of 20% D-glucose. Blood glucose levels at time 0 (immediately before the injection of glucose), 0.25, 0.5, 1 and 2 hours after injection of glucose were determined using a glucometer with a maximum glucose measurement capacity of 600 mg/dL. Because of this, blood glucose levels over 600 mg/dL were counted as 600 mg/dL in the data analysis.

[4] = target: T1, native insulin receptor (Insr) (Rattus norvegicus, UniProt P15127); assay: In vitro cell-free phosphorylation of native insulin receptor; format: biochemical; settings: 3.8 μM, cell-free (FIG. 27)
T1 construct: native insulin receptor proteins, containing both alpha and beta subunits; purchased Sigma I9266; host or cells: purified from rat liver tissue
Protocol: In vitro phosphorylation of Insr was performed according to Sigma's protocol with the following modifications. In brief, 10 μl of native insulin receptor solution containing 0.8 μl of original native INSR stock solution (Sigma, Catalog #I9266; diluted in enzyme dilution buffer containing 50 mM HEPES, pH 7.6, 150 mM NaCl and 0.1% Triton X-100) were incubated with equal volume of solutions containing insulin (Sigma), DMSO (Compound #43 solvent), Compound #43 or Compound #68 (diluted in 50 mM HEPES, pH 7.6 and 100 μg/ml bovine serum albumin) on ice for 30 min. Then 20 μl of 2× kinase buffer containing 0.2 mM ATP, 50 mM HEPES, pH 7.6, 50 mM MgCl2 and 4 mM MnCl2 were added to the above reactions, mixed and incubated on ice for 45 minutes.
Five microliters of the above reactions were immediately subjected to Western blot analysis using specific antibodies against phosphorylated tyrosine residues at 1146, 1150 and 1151 of Insrβ proteins (Cell Signaling Inc.). Protein band density was determined using the NIH Image J software.

[5] = Body weight, gross morphology and walking behavior of treated Lepr^db/db mice; format: in vivo
Protocol: Body weights of the above treated mice were recorded daily using a balance and any visible abnormal animal gross morphology and walking behavior were monitored daily. After the treatments, animals were fasted overnight and then subjected to blood glucose or HbA1c assays, glucose tolerance tests or tissue collections.
After the treatments for 43 days, animals were fasted overnight and then subjected to blood glucose and glucose tolerance tests. After daily treatments of these compounds for 90 days, sera from these animals were collected and then subjected to blood HbA1c assays.

H4IIE cells [6] = assay: Cell viability (CellTiter96 AQueous One) in H4IIE cells; format: cell-based, rat; settings: tested doses
Protocol: as §2

HepG2 cells [7] = assay: Cell viability (CellTiter96 AQueous One) in HepG2 cells; format: cell-based, human; settings: higher doses 0.5-4 mM
Protocol: as §2

H4IIE cells [8] = assay: Glucose production assay in H4IIE cells; format: cell-based, rat
Protocol: as §1, §2, §3

[9] = tested doses, serum-free glucose production media, 48 hr (FIG. 1)
[10] = 25 μg selenium/kg ip daily for 43 days from 41 days of age (FIG. 5)
[11] = 25 μg selenium/kg ip daily, 90 days, from 41 days of age

T1 sequence (P15127 764-1383 limits assumed): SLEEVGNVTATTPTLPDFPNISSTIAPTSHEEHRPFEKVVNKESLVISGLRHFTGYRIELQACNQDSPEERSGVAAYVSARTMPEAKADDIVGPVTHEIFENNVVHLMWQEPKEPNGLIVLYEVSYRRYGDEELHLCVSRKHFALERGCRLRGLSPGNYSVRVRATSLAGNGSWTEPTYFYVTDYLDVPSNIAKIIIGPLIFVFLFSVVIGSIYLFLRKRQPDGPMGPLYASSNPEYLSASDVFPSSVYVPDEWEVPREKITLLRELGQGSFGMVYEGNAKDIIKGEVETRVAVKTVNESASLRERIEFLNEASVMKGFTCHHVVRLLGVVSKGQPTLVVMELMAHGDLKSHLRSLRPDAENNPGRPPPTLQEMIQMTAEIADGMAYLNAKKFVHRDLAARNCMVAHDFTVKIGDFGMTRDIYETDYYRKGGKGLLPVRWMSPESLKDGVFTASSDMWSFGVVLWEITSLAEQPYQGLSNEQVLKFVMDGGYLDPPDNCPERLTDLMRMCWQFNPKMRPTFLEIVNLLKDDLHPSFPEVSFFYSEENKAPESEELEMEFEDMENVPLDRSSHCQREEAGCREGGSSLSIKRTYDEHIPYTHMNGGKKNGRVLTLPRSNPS
T1 sequence (P15127 27-759 partner limits assumed): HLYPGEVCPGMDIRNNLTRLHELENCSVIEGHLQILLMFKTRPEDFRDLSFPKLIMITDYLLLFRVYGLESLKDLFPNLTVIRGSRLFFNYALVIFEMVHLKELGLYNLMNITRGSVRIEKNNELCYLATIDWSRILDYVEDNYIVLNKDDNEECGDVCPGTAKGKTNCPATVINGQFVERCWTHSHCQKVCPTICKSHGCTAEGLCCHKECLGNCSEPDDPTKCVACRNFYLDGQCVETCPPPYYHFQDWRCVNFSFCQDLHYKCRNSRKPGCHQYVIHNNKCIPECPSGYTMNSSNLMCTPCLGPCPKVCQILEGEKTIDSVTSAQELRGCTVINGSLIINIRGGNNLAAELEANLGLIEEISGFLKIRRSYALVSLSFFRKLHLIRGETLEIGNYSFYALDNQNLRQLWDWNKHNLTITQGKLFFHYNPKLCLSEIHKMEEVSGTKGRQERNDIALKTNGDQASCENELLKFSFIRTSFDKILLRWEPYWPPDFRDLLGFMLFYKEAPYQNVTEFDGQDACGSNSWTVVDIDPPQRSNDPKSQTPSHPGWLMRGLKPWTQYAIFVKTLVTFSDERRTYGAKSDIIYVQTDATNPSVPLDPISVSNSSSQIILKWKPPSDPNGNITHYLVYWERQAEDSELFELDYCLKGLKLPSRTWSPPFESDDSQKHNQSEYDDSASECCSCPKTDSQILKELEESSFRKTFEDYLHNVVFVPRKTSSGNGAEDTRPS

Molecule: Nc1ncnc2c1ncn2[C@@H]1O[C@H](CO)[C@@H](O)[C@H]1O [Compound #57, Adenosine, reference compound]
effect on glucose production in HepG2 cells (HepG2 cells [1]; [9]): did not inhibit glucose production

Molecule: C[C@H]1O[C@@H](n2cnc3c(N)ncnc32)C[C@@H]1O [Compound #59, 2′,5′-Dideoxyadenosine, reference compound]
effect on glucose production in HepG2 cells (HepG2 cells [1]; [9]): did not inhibit glucose production

Molecule: Nc1ncnc2c1ncn2C1CCCO1 (stereo not drawn) [Compound #61, 9-(tetrahydrofuran-2-yl)-9h-purin-6-amine (SQ 22,536), reference compound]
effect on glucose production in HepG2 cells (HepG2 cells [1]; [9]): did not inhibit glucose production

Molecule: Nc1ncnc2[nH]cnc12 [Compound #62, Adenine, reference compound]
effect on glucose production in HepG2 cells (HepG2 cells [1]; [9]): did not inhibit glucose production

Molecule: C[S+](CC[C@H](N)C(=O)O)C[C@H]1O[C@@H](n2cnc3c(N)ncnc32)C(O)C1O.[I-] (stereo partly drawn) [Compound #64, S-(5′-Adenosyl)-L-methionine iodide (SAM), reference compound]
effect on glucose production in HepG2 cells (HepG2 cells [1]; [9]): minimal effects in lowering glucose production

Molecule: CSC[C@H]1O[C@@H](n2cnc3c(N)ncnc32)[C@H](OC(C)=O)[C@@H]1OC(C)=O [Compound #68, Adenosine, 5′-S-methyl-5′-thio-, 2′,3′-diacetate]
effect on fasting blood glucose levels (Lepr^db/db mice [2]; 25 μg selenium or sulfur/kg ip daily, 3 months (FIG. 4)): did not significantly lower blood glucose levels
effect on blood HbA1c levels (Lepr^db/db mice [2]; 25 μg sulfur/kg ip daily, 3 months (FIG. 4)): did not affect blood HbA1c levels
glucose tolerance (overall) (Lepr^db/db mice [3]; 25 μg selenium or sulfur/kg ip daily 2 months (FIG. 8B)): little or no effects to improve glucose tolerance
blood glucose level at 2 hr after glucose injection (Lepr^db/db mice [3]; FIG. 8B, 2 months treatment): no obvious decrease of blood glucose levels
effect on glucose production in HepG2 cells (HepG2 cells [1]; [9]): minimal effects in lowering glucose production
activation of Insr [4]: less effective at the tested dose than Compound #43
overt toxic effects (morphology, walking behavior, body weight) ([5]; 25 μg selenium or sulfur/kg ip daily, 3 months): no overt toxic effects

Molecule: CCCC(=O)OC1C(OC(=O)CCC)[C@@H](C[Se]C)O[C@H]1n1cnc2c(N)ncnc21 (stereo partly drawn) [Compound #70, Adenosine, 5′-Se-methyl-5′-selino-, 2′,3′-dibutanoate]
effect on fasting blood glucose levels (Lepr^db/db mice [2]; [10]): decrease of fasting blood glucose levels in Lepr^db/db mice but less significant than Compound #43
decrease of HbA1c levels (initial assessments) (Lepr^db/db mice [2]; 25 μg selenium/kg ip daily for 90 days (FIG. 5), later revised): about 50%
effect on HbA1c levels (Lepr^db/db mice [2]): neither Compound #69 nor Compound #70 had any significant effect
blood glucose level at 2 hr after glucose injection (Lepr^db/db mice [3]; FIG. 8C, 43 days treatment): slight but non-significant decrease in blood glucose levels
effect on glucose production in HepG2 cells (HepG2 cells [1]; [9]): inhibited glucose production
overt toxic effects (morphology, walking behavior, body weight) [5, 11]: no overt toxic effects

IC50 (H4IIE cells [8]; Rattus norvegicus, H4IIE, serum-free, 24 hr, read-out: IC50 (inhibition of glucose production)): 275 µM
Molecule: CN(C)C(=N)N=C(N)N [metformin, reference compound]
toxic effect on cell viability (H4IIE cells [6]): No toxic effect
effect on glucose production in HepG2 cells (HepG2 cells [1]; 500 μM): did not inhibit glucose production
cell toxicity (HepG2 cells [7]): showed cell toxicity
inhibitory activity on glucose production in H4IIE cells (H4IIE cells [8]; 36.25 μM): little or no inhibitory activity
effect on glucose production in H4IIE cells (H4IIE cells [8]; serum-free, 24 hr (FIG. 2)): dose-dependent decrease in glucose production

Molecule: Adenosine, 5′-Se-methyl-5′-selino-, 2′,3′-dipropionate [Compound #69]
effect on fasting blood glucose levels (Lepr^db/db mice [2]; [10]): slight increase in fasting blood glucose levels
effect on HbA1c levels (Lepr^db/db mice [2]): did not result in a significant decrease of HbA1c levels
blood glucose level at 2 hr after glucose injection (Lepr^db/db mice [3]; FIG. 8C, 43 days treatment): slight but non-significant decrease in glucose levels
effect on glucose production in HepG2 cells (HepG2 cells [1]; [9]): inhibited glucose production
overt toxic effects (morphology, walking behavior, body weight) [5, 11]: no overt toxic effects

Molecule: Adenosine, F—Se-methyl-F-seleno-, 2′-morpholinocarbamate and Adenosine, 5′-Se-methyl-F-seleno-, 3′-morpholinocarbamate [Compound #53]
effect on glucose production in HepG2 cells (HepG2 cells [1]; [9]): inhibited glucose production
